Source: US20050004068A1, “Modulation of tor” (priority 2001, published 2005)
Several values for one entry are separate records, joined by “and”; a condition that tells them apart may be missing. Equal entries are not always repeated. Entries after “also recorded” stand apart in the source; their conditions may differ. Where two headings read alike, the source gives them in different places. One block for each compound: values may come before it.

Key:
[1] = tested on: S6K1 (T389 phosphorylation / activation; reporter for mTOR function); assay: Insulin-induced S6K1 activation and T389 phosphorylation in HEK293 cells (reporter for mTOR function); assay type: cell-based, human; settings: HEK293, 200 nM insulin, 100 mM 2-deoxyglucose or 20 mM rotenone, 30 min
Method: Because mTOR is sensitive to amino acids and regulates ribosome biogenesis (Dennis et al., 1999; Gingras et al., 2001; Schmelzle and Hall, 2000), we tested whether its activity may be sensitive to metabolic inhibitors. We used, insulin-induced S6K1 activation and 4E-BP1 phosphorylation as reporters for mTOR function in the presence of glycolytic or mitochohdrial inhibitors to reduce ATP production.
Briefly, human embryonic kidney cells (HEK293) were seeded and maintained as previously described (Pullen et al., Science 279, 707 (1998)). Confluent cells were serum starved for 20 h and then extracted (controls) or treated with 200 nM insulin in the precence or absence of 100 mM 2-deoxyglucose or 20 mM rotenone for 30 min. Cell extraction, kinase assays and Western blot analysis (used to measure S6K1 levels and T389 phosphorylation) were performed as described (Pullen et al.,1998). Phosphospecific antibodies are commercially available (e.g., New England Biolabs).

[2] = tested on: 4E-BP1 (S65 phosphorylation; mTOR-mediated site); assay type: cell-based, human
Method: Transfections were carried out essentially as described by Manteuffel et al., 1997, Mol Cell. Biol. 17, 5426 with the 4EBP-1 construct described therein. The expression and phosphorylation of transiently-transfected HA-4E-BP1 was measured using a polyclonal anti-HA antibody and phosphospecific antibody against S65, respectively, essentially as described above (Pullen et al., 1998). The anti-HA antibody was obtained from a commercial source (Santa Cruz Biotechnology, Inc). The mTOR-mediated phosphorylation site in 4E-BP1 is S65.

[3] = tested on: HEK293 cells (intracellular ATP); assay: Intracellular ATP levels in HEK293 cells, luciferase-based assay; assay type: cell-based, human; settings: for ATP levels compared to insulin stimulated control (100%): Example 4; for ATP levels as a percentage of the insulin-stimulated control (100%): mock-transfected HEK293, insulin-stimulated, treated as in Example 1 (100 mM 2-deoxyglucose or 20 mM rotenone, 30 min)
Method: Because mTOR is sensitive to glycolitic inhibitors, we wanted to determine whether mTOR is sensitive to alterations in intracellular ATP concentrations. ATP levels were measured from mock-transfected HEK293 cells (using empty vector) treated as in Example 1, using a luciferase-based assay. Retonone and 2-deoxyglucose treatments were carried out on insulin-stimulated cells.
To generate extracts for ATP assays, cells were washed twice with 10 ml ice cold PBS, drained thoroughly, scraped into 1 ml of buffer (100 mM Tris-HCl and 4 mM EDTA pH 7.75) and transferred into an Eppendorf tube before flash freezing in liquid nitrogen. The frozen cells were boiled for 3 min and then placed on ice for 5 min followed by centrifugation at 13,000 rpm for 5 min at 4° C. ATP levels in the extract were measured in a microtiter plate by a Luciferase-based assay (Roche, ATP Bioluminescence Assay Kit CLS II) using a Microlumat LB96P microtiter plate reader (EG&G Berthold). In an illustrative set of experiments and expressing results as a percentage of the insulin-stimulated control (100%), ATP levels increased slightly in insulin treated cells (94% in unstimulated cells), decreased in 2-deoxyglucose treated cells (40-49%) and rotenone-treated cells (75-83%).
(§1) Rapamycin resistance was conferred by fusing glutathione-S-transferase to the NH2-terminus of S6K1 and truncating the COOH-terminus, creating a construct termed GST-ΔC-S6K1 (Pullen et al.,1 998). For the construction of the GST-ΔC-S6K1 (also known as GST-ΔC104-S6K1) and D3E, K100Q-S6K1-GST plasmids, similar cloning strategies were used. S6K1-GST or GST-ΔC-S6K1 from transiently-transfected, serum-starved HEK293 cells were extracted directly or after insulin stimulation with or without the addition of 20 nM rapamycin or 100 nM wortmannin. Kinase activities, expression levels and T389 phosphorylation were carried out essentially as described above. Expression and activity of S6K1-GST or GST-ΔC-S6K1 were measured after insulin stimulation alone or with increasing amounts of 2-deoxyglucose (20, 40 and 100 mM) essentially as described above. Mock-transfected HEK293 cells were treated using the same conditions and extracted for ATP analysis

[4] = tested on: Protein Kinase B (PKB); assay: Insulin-induced HA-PKB activation (S473 phosphorylation, in vitro H2B phosphorylation); assay type: cell-based, human; settings: 100 mM 2-deoxyglucose, 20 nM rapamycin or 100 nM wortmannin
Method: (§2) Transiently-transfected, HA-tagged PKB activation was measured in vitro using histone 2B (H2B) as substrate (Franke et al., 1995, Cell 81, 727) after immunoprecipitation from serum-starved cells extracted directly or after insulin stimulation with or without the addition of 100 mM 2-deoxyglucose, 20 nM rapamycin or 100 nM wortmannin. Rapamycin and wortmannin were added to serum-starved cells 30 min prior to insulin-stimulation. HA-PKB expression and S473 phosphorylation were measured essentially as described above. HA-MAPK kinase activity toward using myelin basic protein (MBP) was measured from serum-starved cells extracted directly or after 100 nM TPA stimulation in the presence or absence of 20 nM rapamycin or 100 mM 2-deoxyglucose for 30 min (N. Pullen et al., 1998).

[5] = tested on: Mitogen-Activated Protein Kinase (MAPK); assay: TPA-induced HA-MAPK activation (MBP phosphorylation); assay type: cell-based, human; settings: 100 nM TPA, 100 mM 2-deoxyglucose, 30 min
Method: as §2

[6] = tested on: S6K1-GST; assay: Insulin-induced activation of S6K1-GST (rapamycin sensitive) in transfected HEK293 cells; assay type: cell-based, human; settings: 20 nM rapamycin, 100 nM wortmannin, or 2-deoxyglucose 20, 40 and 100 mM
Text: as §1

[7] = tested on: GST-ΔC-S6K1; assay: Insulin-induced activation of GST-ΔC-S6K1 (rapamycin-resistant allele) in transfected HEK293 cells; assay type: cell-based, human; settings: 20 nM rapamycin, 100 nM wortmannin, or 2-deoxyglucose 20, 40 and 100 mM
Text: as §1

[8] = tested on: aminoacylated tRNA; assay: tRNA aminoacylation in HEK293 cells (acid/urea gel, Northern blot); assay type: cell-based, human; settings: HEK293, insulin stimulation with 2-deoxyglucose
Method: Briefly, total RNA was isolated from serum-starved HEK293 cells directly or after insulin stimulation with or without 2-deoxyglucose or amino acid starvation. As a control marker, tRNA was […] by mild alkaline hydrolysis in 0.1 M Tris-HCl (pH 8.0) at 75° C. for 5 min. After resolution on an acid/urea gel (Enriquez et al., in Methods Enzymol., Acad. Press, San Diego, vol. 264, pp. 183.), tRNA was visualized with ethidium bromide staining. Expression levels and phosphorylation state of endogenous S6K1 and 4E-BP1 were also measured from serum-starved cells, stimulated with insulin in the presence or absence of amino acids in the media essentially as described in Example 1.
To further test this finding, selected tRNAs were examined by Northern blot analysis of the tRNA resolved by acid/urea gel electrophoresis as described above. The individual tRNA species were probed after electrotransfer to nylon membrane, with radiolabelled oligonucleotides specific for tRNALeu and tRNAHis, namely: tRNALeu 5′-GCGCCTTAGACCGCTCGGCCACG-3′ (SEQ ID NO:1); tRNAHis 5′-GGTGCCGTGACTCGGATTCGAACCG-3′ (SEQ ID NO:2); and tRNAThr 5′-GCG AGA AAT GM CTC GCG-3′ (SEQ ID NO:3).

[9] = tested on: HEK293 cells (amino acid levels); assay: Levels of individual amino acids in extracts of insulin-stimulated HEK293 cells; assay type: cell-based, human; settings: 100 mM 2-deoxyglucose
Method: Levels of individual amino acids were measured in extracts prepared from insulin-stimulated HEK293 cells in the presence or absence of amino acids or with 100 mM 2-deoxyglucose treatment and expressed as a percentage of the insulin-stimulated control in the presence of amino acids. Briefly, confluent cultures of HEK293 cells were treated as described above, washed with PBS and drained thoroughly. The cells were then scraped into […] water and sonicated with four 10 sec pulses. Cell debris was removed by centrifugation and sulfosalicylic acid was added to the supernatant to a final concentration of 2%. The samples were then placed on ice for 30 min followed by centrifugation to remove precipitated proteins. The extracts were then analyzed for amino acid content with a Biochrom 20 plus amino acid analyzer (Amersham-Pharmacia Biotech).

[10] = molecular target: T1, mTOR (HA-mTORwt) (Homo sapiens, UniProt P42345); assay: In vitro T389 kinase activity of HA-mTORwt immunoprecipitated from treated HEK293 cells; assay type: cell-based; settings: cells treated with 100 mM 2-deoxyglucose; assay with 1 mM ATP, 30 min at 30° C.
T1 construct: expressed in transfected cells; host or cells: HEK293 (anti-HA immunoprecipitate)
Method: (§3) Briefly, transiently transfected, hemaglutinin-tagged (HA) wild-type mTOR (HA-mTORwt) from HEK293 cells were serum starved for 16 hours before insulin stimulation. The cells were then treated with (or controls without) 100 mM 2-deoxyglucose or subjected to amino acid starvation as described above. Cell extracts were prepared for immunoprecipitations with a monoclonal anti-HA antibody. The immunocomplex was washed once with 1 M NaCl in assay buffer (30 mM MOPS (pH7.5), 5 mM NaF, 20 mM β-glycerol phosphate, 1 mM dithioerythritol, 0.1% Triton X-100 and 10% glycerol) and twice with assay buffer alone. […] Quantitation for Km measurements was carried out using scanning densitometry and ImageQuant software (Molecular Dynamics).

[11] = molecular target: T1, mTOR (HA-mTORwt); assay: mTOR in vitro kinase activity at varying ATP concentrations (apparent Km for ATP); assay type: biochemical; settings: S6K1 T389 phosphorylation, ATP 0.2-3.0 mM
Method: as §3
Next, we measured mTOR activity in vitro at ATP concentrations that approached physiological levels of 1-5 mM In mammalian cells (Gribble et al., 2000, J.Biol.Chem. 275, 30046).

[12] = tested on: most protein kinases; settings: read-out: Km for ATP of most cellular kinases; cited from earlier work
[13] = insulin stimulated HEK293 transfected with HA-4E-BP1, Western blot
[14] = summary: S6K1 T389 and 4E-BP1 S65 in insulin-stimulated HEK293

TPA-induced MAPK activation, as judged by MBP phosphorylation [5]: no discernable effect | effect on kinase activity of mTOR in vitro towards T389 of S6K1 [10]: no effect
SMILES: O=CC[C@@H](O)[C@H](O)[C@H](O)CO [2-deoxyglucose]
inhibition of insulin-induced S6K1 T389 phosphorylation and S6K1 activation (S6 phosphorylation) [1]: reducing phosphorylation/activation to background levels; also recorded: blocked insulin-induced activation of S6K1 | inhibition of 4E-BP1 S65 phosphorylation [2, 13]: inhibit 4EBP-1 S65 phosphorylation to background levels | inhibition of phosphorylation of mTOR targets (summary of Example 1) [2, 14]: able to reduce phosphorylation of mTOR targets to background levels | ATP levels compared to insulin stimulated control (100%) ([3]; 20 nM 2-deoxyglucose (so in the source)): 57-59% | ATP levels compared to insulin stimulated control (100%) ([3]; 40 nM 2-deoxyglucose (so in the source)): 43-48% | ATP levels compared to insulin stimulated control (100%) ([3]; 100 nM 2-deoxyglucose (so in the source)): 32-36% | ATP levels as a percentage of the insulin-stimulated control (100%) [3]: 40-49% | insulin-induced activation of PKB, as judged by S473 phosphorylation and in vitro phosphorylation of H2B [4]: did not inhibit | insulin-induced phosphorylation/activation of S6K1-GST [6]: reduced insulin-induced activation of S6K1-GST | insulin-induced phosphorylation/activation of GST-ΔC-S6K1 [7]: unaffected | effect on total amounts of aminoacylated tRNA [8]: Neither insulin stimulation nor 2-deoxyglucose treatment had an effect | amino acid levels (Ala, Glu, Leu, Ile and Val) as a percentage of the insulin-stimulated control in the presence of amino acids [9]: 100-120%

SMILES: Nc1ncnc2c1ncn2[C@@H]1O[C@H](COP(=O)(O)OP(=O)(O)OP(=O)(O)O)[C@@H](O)[C@H]1O [ATP]
Km [11]: ≥ 1000 µM and 1000 µM | Km [12]: 10 to 20 µM

SMILES: O=C(O)CI [iodoacetic acid]
inhibition of 4E-BP1 S65 phosphorylation [2]: more efficient than dinitrophenol | inhibition of phosphorylation of mTOR targets (summary of Example 1) [2]: able to reduce phosphorylation of mTOR targets to background levels

SMILES: CO[C@H]1C[C@@H]2CC[C@@H](C)[C@@](O)(O2)C(=O)C(=O)N2CCCC[C@H]2C(=O)O[C@H]([C@H](C)C[C@@H]2CC[C@@H](O)[C@H](OC)C2)CC(=O)[C@H](C)/C=C(\C)[C@@H](O)[C@@H](OC)C(=O)[C@H](C)C[C@H](C)/C=C/C=C/C=C/1C [rapamycin]
insulin-induced activation of PKB, as judged by S473 phosphorylation and in vitro phosphorylation of H2B [4]: did not inhibit

SMILES: C=C(C)[C@H]1Cc2c(ccc3c2O[C@@H]2COc4cc(OC)c(OC)cc4[C@@H]2C3=O)O1 [rotenone]
inhibition of insulin-induced S6K1 T389 phosphorylation and S6K1 activation (S6 phosphorylation) [1]: inhibitory effect | inhibition of 4E-BP1 S65 phosphorylation [2, 13]: inhibitory effect | inhibition of phosphorylation of mTOR targets (summary of Example 1) [2, 14]: able to inhibit phosphorylation of mTOR targets | ATP levels as a percentage of the insulin-stimulated control (100%) [3]: 75-83%
